Values after ≈ are worked out from the molar mass of the structure shown. Ends that are not written are not given here.
Columns and labels:
HSV-1 = HSV-1 attachment (adsorption) assay on Vero cells; format: cell-based; conditions: compound present during adsorption, 3 h at 4° C., 200 PFU; plaques after 48 h
Protocol: (§1) FIG. 3. The dendrimeric peptides SB105 and SB105-A10 inhibit HSV-1 and HSV-2 attachment to Vero cells. Pre-chilled Vero cells were incubated at 4° C. with different concentrations of SB105, SB105-A10, SB104 or heparin and with 200 PFU of HSV-1 or HSV-2. Following virus adsorption (3 h at 4° C.), cells were then washed with cold PBS three times to remove compound and unadsorbed viruses, overlaid with medium containing 1.2% methylcellulose and incubated at 37° C. for 48 h. Viral plaques were then stained and counted, and the mean plaque counts for each peptide concentration expressed as a percentage of the mean count of the controls. The data shown represent means±SD of three independent experiments (error bars).
(§2) Following virus adsorption (3 h at 4° C., a condition that is known to allow virus adsorption only), cells were then washed with cold PBS three times to remove compound and unadsorbed viruses, overlaid with medium containing 1.2% methylcellulose and incubated at 37° C. Forty eight hours later, plates were fixed and stained with crystal violet and the viral plaques counted.

HSV-2 = HSV-2 attachment (adsorption) assay on Vero cells; format: cell-based; conditions: compound present during adsorption, 3 h at 4° C., 200 PFU; plaques after 48 h
Protocol: as §1, §2

HCMV AD169 = assay: HCMV attachment (adsorption) assay on HELF cells; format: cell-based; conditions: compound present during adsorption, 3 h at 4° C., 200 PFU AD169; plaques after 6 days
Protocol: FIG. 6. HCMV adsorption to target cells is inhibited by SB105 and SB105-A10 dendrimeric peptides. Pre-chilled HELF cells were incubated at 4° C. with different concentrations of SB105, SB105-A10, SB104 or heparin and with 200 PFU of HCMV AD169. Following virus adsorption (3 h at 4° C.), cells were washed with cold PBS three times to remove compound and unadsorbed viruses, overlaid with medium containing 1.2% methylcellulose and incubated at 37° C. for 6 days. Viral plaques were then stained and counted and the mean plaque counts for each peptide concentration were expressed as a percentage of the mean count of the controls. The data shown represent means±SD of three independent experiments (error bars).
After 24 h, they were prechilled to 4° C. and incubated in duplicate at 4° C. with different concentrations of SB105, SB105_A10, SB104 (as negative control for inhibition of viral replication) or heparin (as a positive control for inhibition of viral adsorption) and with 200 PFU of HCMV AD169. Following virus adsorption (3 h at 4° C., a condition that is known to allow virus adsorption only), cells were then washed with cold PBS three times to remove compound and unadsorbed viruses, overlaid with medium containing 1.2% methylcellulose and incubated at 37° C. for 6 days. Plates were then fixed and stained with crystal violet and the viral plaques counted.

HIV-1IIIb = HIV-1IIIb replication in C8166 cells (RNA load by real time RT-PCR, p24 ELISA); format: cell-based; conditions: day 7 post-infection, 0.1-20 μg/ml
Description: FIG. 8: Quantitative real time RT-PCR analysis of HIV-1 RNA load in HIV-1 infected C8166 cell culture supernatants at day 7 post infection. […] The data are reported as means±SD of three independent experiments performed in duplicate.
FIG. 9: ELISA HIV-1 p24 protein analysis in HIV-1 infected C8166 cell culture supernatants at day 7 post infection. […] The data are reported as means±SD of three independent experiments performed in duplicate.
HIV-1 RNA viral load and HIV-1 gag p24 content were determined at day 7 post-infection in the culture supernatants in three independent experiments performed in duplicate. HIV-1 RNA was extracted by Roche high pure viral nucleic acid kit (Roche, Mannheim, Germany) from 200 μl of culture supernatants and then RNA load was assessed by quantitative real time RT-PCR as previously described (Gibellini et al., 2004). In parallel, HIV-1 gag p24 protein amount was determined by ELISA HIV-1 p24 antigen kit (Biomerieux Marcy L'Etoile, France).

[1] = system: HCMV clinical isolate AL1; conditions: HELFs, M.O.I. 1, 6 days p.i.
Protocol: (§3) FIGS. 4A and 4B. […] HUVECs were infected with the endotheliotropic and clinical HCMV isolate VR1814 (FIG. 4B) at a M.O.I of 1. The extent of AD169 or AU replication was then assessed by titrating the infectivity of supernatants of HELF suspensions by standard plaque assay. The extent of VR1814 replication was measured by titrating the infectivity of supernatants of cell suspensions by the indirect immunoperoxidase staining procedure on HUVECs using a monoclonal antibody (mAb) reactive to the HCMV IE proteins. Plaques were microscopically counted, and the mean plaque counts for each peptide concentration were expressed as a percentage of the mean count of the controls. The number of plaques was plotted as a function of drug concentration, and the concentration producing a 50% reduction in plaque formation (IC50) was determined.
(§4) After 1 hour, they were infected with HCMV AD169 or HCMV AL1 at a M.O.I. of 1 PFU/cell. […] The cells and supernatants from the antiviral assay were then harvested and disrupted by sonication. The extent of virus replication was assessed by titrating the infectivity of supernatants of cell suspensions by standard plaque assay on HELFs.

[2] = system: HCMV laboratory strain AD169; conditions: HELFs, M.O.I. 1, treated 1 h before and during infection, 6 days p.i.
Protocol: as §3, §4

HCMV VR1814 = conditions: HUVECs, M.O.I. 1, 6 days p.i.
Protocol: as §3
The cells and supernatants from the antiviral assay were then harvested and disrupted by sonication.

in vitro = conditions: human, 293TT cells
Protocol: The 293TT cell line derived from human embryonal kidney cells transformed with the SV40 large T antigen was cultured in Dulbecco's modified Eagle's medium (DMEM) (Gibco/BRL, Gaithersburg, Md., USA) supplemented with heat-inactivated 10% bovine serum (Gibco/BRL), Glutamax-I (Invitrogen, Carlsbad, Calif., USA) and nonessential aminoacids. This cell line allows high levels of protein to be expressed from vectors containing the SV40 origin due to overreplication of the expression plasmid (Buck et al., 2004).
Cells were seeded at a density of 5×10^4/well in 24-well plates; the next day they were treated with serially diluted peptides to generate dose-response curves. Forty-eight or 72 h after treatment, cell viability was determined by the 3-(4,5-dimethylthiazol-2-yl)-2,5-diphenyltetrazolium bromide (MTT) method; 50% cytotoxic concentration (CC50) values were determined using Prism.

HPV-16 PsV = conditions: HPV-16-SEAP PsV preincubated with peptide, 293TT cells, 72 h post-infection
Description: HPV-16 PsV were produced according to previously described methods (Buck et al., 2005). Briefly, 293TT cells were transfected with the plasmid p16sheLL expressing the papillomavirus major and minor capsid proteins (L1 and L2) together with a reporter plasmid expressing the secreted alkaline phosphatase (SEAP) or the green fluorescence protein (GFP) named pYSEAP or pfwB respectively. Capsids were allowed to mature overnight in cell lysate; the clarified supernatant was then loaded on top of a 27-33-39% Optiprep (Sigma-Aldrich, St. Louis, Mo., USA) density gradient at room temperature for 4 h. […] The L1 protein content of PsV stocks was determined by comparison with bovine serum albumin standards in Coomassie-stained SDS-PAGE gels.
For the Secreted Embryonic Alkaline Phosphate (SEAP)-based assays 293TT cells were preplated 3-4 h in advance in 96-well tissue culture-treated flat bottom plates at a density of 30,000 cells/well in 100 μl neutralization buffer (DMEM without phenol red, 10% heat-inactivated FBS, 1% glutamate, 1% nonessential amino acids, 1% penicillin-streptomycin-fungizone, and 10 mM HEPES). […] The SEAP content in the clarified supernatant was determined using a Great ESCAPE SEAP Chemiluminescence Kit (BD Clontech, Mountain View, Calif., USA) as directed by the manufacturer. […]

Compound | effect on HSV-1 attachment to Vero cells (HSV-1) | effect on HSV-2 attachment to Vero cells (HSV-2) | effect on HCMV attachment (adsorption) to HELF cells (HCMV AD169) | HIV-1 gag p24 content in culture supernatants (HIV-1IIIb; ELISA) | HIV-1 RNA load in culture supernatants (HIV-1IIIb; real time RT-PCR) | IC50, HCMV clinical isolate AL1 replication [1] [µg/mL] | 50% inhibition of HCMV AD169 replication (IC50) [2] [µg/mL] | IC50, endotheliotropic HCMV VR1814 replication (HCMV VR1814) [µg/mL] | CC50 (in vitro) [µg/mL] | IC50 against HPV-16 PsV (HPV-16 PsV) [µg/mL]
heparin | prevented virus adsorption | prevented virus adsorption | prevented virus adsorption | – | – | – | – | – | – | –
(NKKIRVRL)4-Lys2-Lys-β-Ala (also: tetramer on Lys2-Lys-β-Ala core) [SB104] | did not significantly reduce | did not significantly reduce | did not significantly reduce | did not induce significant inhibition | did not induce significant inhibition | – | – | – | – | –
CC[C@H](C)[C@H](NC(=O)[C@H](CCCNC(=N)N)NC(=O)[C@@H](NC(=O)[C@H](CCCNC(=N)N)NC(=O)[C@H](CC(C)C)NC(=O)[C@H](CO)NC(=O)[C@H](C)N)C(C)C)C(=O)N[C@@H](CCCCN)C(=O)N[C@@H](CCCCN)C(=O)N[C@@H](CCC(N)=O)C(=O)NCCCC[C@H](NC(=O)[C@H](CCC(N)=O)NC(=O)[C@H](CCCCN)NC(=O)[C@H](CCCCN)NC(=O)[C@@H](NC(=O)[C@H](CCCNC(=N)N)NC(=O)[C@@H](NC(=O)[C@H](CCCNC(=N)N)NC(=O)[C@H](CC(C)C)NC(=O)[C@H](CO)NC(=O)[C@H](C)N)C(C)C)[C@@H](C)CC)C(=O)NCCCC[C@H](NC(=O)[C@H](CCCCNC(=O)[C@H](CCC(N)=O)NC(=O)[C@H](CCCCN)NC(=O)[C@H](CCCCN)NC(=O)[C@@H](NC(=O)[C@H](CCCNC(=N)N)NC(=O)[C@@H](NC(=O)[C@H](CCCNC(=N)N)NC(=O)[C@H](CC(C)C)NC(=O)[C@H](CO)NC(=O)[C@H](C)N)C(C)C)[C@@H](C)CC)NC(=O)[C@H](CCC(N)=O)NC(=O)[C@H](CCCCN)NC(=O)[C@H](CCCCN)NC(=O)[C@@H](NC(=O)[C@H](CCCNC(=N)N)NC(=O)[C@@H](NC(=O)[C@H](CCCNC(=N)N)NC(=O)[C@H](CC(C)C)NC(=O)[C@H](CO)NC(=O)[C@H](C)N)C(C)C)[C@@H](C)CC)C(=O)NCCC(N)=O [SB105, (ASLRVRIKKQ)4-Lys2-Lys-β-Ala] | – | – | – | – | – | 1.2 (≈ 0.231 µM) | 1.17 | 1.1 (≈ 0.212 µM) | > 100 | 11.6 (≈ 2.23 µM)

From patent US8877738B2, “Antipathogenic peptides” (priority 2009, dated 2014)
